Calls of active or inactive are those of the source. The calls are words filed in the database; no cut-off is given here.
Columns and labels:
[1] = target: C-C motif chemokine 2 (Homo sapiens) (UniProt P13500); assay: Inhibition of CCL2 in human THP1 cells assessed as reduction of cell migration at 50 uM after 3 hrs; format: cell-based; details: THP-1
[2] = target: C-C motif chemokine 2 (Homo sapiens) (UniProt P13500); assay: Inhibition of CCL2 in human THP1 cells assessed as reduction of cell migration at 100 uM after 3 hrs; format: cell-based; details: THP-1
[3] = target: C-C motif chemokine 2 (Homo sapiens) (UniProt P13500); assay: Inhibition of CCL2 in human THP1 cells assessed as effect on level of ERK1/2 phosphorylation at 50 uM after 5 mins by Western blot analysis; format: cell-based; details: THP-1
[4] = target: C-C motif chemokine 2 (Homo sapiens) (UniProt P13500); assay: Inhibition of CCL2 in human PBMC assessed as reduction of cell migration into TNFalpha/IFNgamma-stimulated HMEC-1 cells at 50 uM after 4 hrs; format: cell-based
[5] = target: C-C motif chemokine 2 (Homo sapiens) (UniProt P13500); assay: Inhibition of CCL2 in human THP1 cells assessed as reduction of cell migration into TNFalpha/IFNgamma-stimulated HMEC-1 cells at 50 uM after 4 hrs; format: cell-based; details: THP-1
[6] = target: T1, C-C motif chemokine 5 (Homo sapiens) (UniProt P13501); assay: Inhibition of CCL5 in human THP1 cells assessed as reduction of cell migration at 50 uM after 3 hrs; format: cell-based; details: THP-1
T1 sequence (whole entry): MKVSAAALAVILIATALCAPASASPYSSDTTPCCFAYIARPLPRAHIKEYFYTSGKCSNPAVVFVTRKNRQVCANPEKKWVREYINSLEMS

[7] = target: C-C motif chemokine 2 (Homo sapiens) (UniProt P13500); assay: Inhibition of CCL2 in human PBMC assessed as reduction of cell adhesion to VCAM1-Fc at 50 uM by flow based adhesion assay
[8] = target: C-C motif chemokine 7 (Homo sapiens) (UniProt P80098); assay: Inhibition of CCL7 in human THP1 cells assessed as reduction of cell migration at 50 uM after 3 hrs; format: cell-based; details: THP-1
C-C motif chemokine 7 (Homo sapiens), sequence (P80098 whole entry): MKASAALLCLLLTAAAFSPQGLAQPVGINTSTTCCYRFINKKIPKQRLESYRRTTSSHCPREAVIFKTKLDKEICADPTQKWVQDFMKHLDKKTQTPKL

C-C motif chemokine 2 (Homo sapiens), sequence (P13500 24-99 limits assumed): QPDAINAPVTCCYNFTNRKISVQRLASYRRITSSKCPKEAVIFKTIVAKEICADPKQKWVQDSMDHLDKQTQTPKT

| Compound | inhibition [1] | inhibition [2] | inhibition [3] | inhibition [4] | inhibition [5] [%] | inhibition [6] | inhibition [7] [%] | inhibition [8] |
| --- | --- | --- | --- | --- | --- | --- | --- | --- |
| O=C1N[C@@H](Cc2ccccc2)C(=O)N2CCC[C@@H]12 | Active | Active | inactive | Active | 50 | – | – | – |
| O=C1N[C@@H](Cc2ccc(F)cc2)C(=O)N2CCC[C@@H]12 | 40% | Active | inactive | Active | 70 | inactive | 35 | inactive |

From ChEMBL document CHEMBL3217544, “Evaluation of two cyclic di-peptides as inhibitors of CCL2 induced chemotaxis” (Medchemcomm, 2013)
